Measurements reported in patent publication US8519154B2, “Method for treatment of bronchial asthma” (Council of Scientific & Industrial Research, priority 2011, dated 2013).

System: Male wistar rats
Assay: Blood pressure, heart rate and respiratory rate by telemetry
Type: in vivo
Design: RR: unit not given beside the values
Conditions: for RR / HR / DBP / SBP: 50 mg/kg i.v.; for HR: in bpm (unit assumed); for DBP / SBP: in mmHg (unit assumed)
Experimental: Male wistar rats of approximately 6 months of age were anaesthetised with a mixture of ketamine (40 mg/kg) and xylazine (5 mg/kg) and fitted with TL11M2-C50PXT telemetry transmitters (Data Sciences Intl., St. Paul, Minn., USA) in the peritoneal cavity by performing surgery. Experiments were performed 15 days after surgery. Individual rats were placed in plastic cage on top of a receiver (RLA 2000, Data Science) for the measurement of systolic BP, diastolic BP, Heart rate and respiratory rate. The signals from the transmitters were received by two RLA 2000 receivers and transmitted via a Data Exchange Matrix to a Dataquest PCI card CQ 2240 in the computer. The data were interpreted by the Dataquest program A.R.T. version 2.2 Gold Version.

COc1cc(C=O)cc2c1[nH]c1ccccc12 [Compound I, 1-methoxy-3-formyl-9H carbazole]
RR (0 mins): 89.4 ± 1.4
HR (0 mins): 242.1 ± 9.7
DBP (0 mins): 71.7 ± 10.2
SBP (0 mins): 112 ± 2.89
RR (1 hr): 85.77 ± 8.9
HR (1 hr): 309.1 ± 45.9
DBP (1 hr): 82.1 ± 4.5
SBP (1 hr): 115.4 ± 3.6
RR (2 hr): 89.5 ± 2.56
HR (2 hr): 261 ± 13.8
DBP (2 hr): 77.5 ± 6.07
SBP (2 hr): 114.5 ± 2.8
RR (3 hr): 84.5 ± 3.5
HR (3 hr): 272.7 ± 17.5
DBP (3 hr): 78.5 ± 8.1
SBP (3 hr): 110.2 ± 4.5
RR (4 hr): 96.3 ± 2.1
HR (4 hr): 273.1 ± 17.06
DBP (4 hr): 75.9 ± 8.2
SBP (4 hr): 108.7 ± 5.2
change in blood pressure, heart rate and respiratory rate (rats, before and after treatment): No significant change in blood pressure, heart rate and respiratory rate
